{"source": "patent US9085523B2", "about": "“Compound for treating cartilage disorders” (ONO PHARMACEUTICAL CO., LTD., priority 2011, dated 2015)", "key": {"[1]": {"system": "blood pressure and heart rate of normal rabbit", "assay": "Measurement of blood pressure and heart rate of normal rabbit", "type": "in vivo", "conditions": "for effect on circulatory system: at the dose exhibiting efficacy on the knee cartilage defect model, comparison of blood concentrations of Compound A", "description": "Compound A acts on circulatory system and affects on blood pressure and heart rate.\nBlood pressure and heart rate were measured by the following method using female Japanese white domestic rabbit. An animal was retained in dorsal position on an operation table on a measurement day. After the hair of right femur area was removed, a local anesthetic was given by administering an appropriate amount of lidocaine injection. The skin and muscle was incised to expose femur artery and vein, and a catheter (manufactured by Atom Medical Corporation) filled with saline containing heparin (about 10 units/mL) beforehand was placed in the right femur artery.\nAfter retaining the rabbit in a rabbit blood sampling box (manufactured by NATSUME SEISAKUSHO CO LTD.), the catheter was connected to a pressure transducer (DX-100: manufactured by NIHON KOHDEN CORPORATION) to measure blood pressure with a strain pressure amplifier (AP-641G: manufactured by NIHON KOHDEN CORPORATION) and heart rate with an instantaneous heart rate counter (AT-601G: manufactured by NIHON KOHDEN CORPORATION). Blood pressure and waveform of heartbeat were recorded by a recorder (WR3701: manufactured by Graphtech Corporation). Measurement was conducted under awake condition after confirming blood pressure and heart rate became stable.\n(§1) Compound A was administered cumulatively through right auricular vein with a syringe pump (manufactured by TERUMO CORPORATION) at 0 (medium: saline), 100, 300 and 1000 ng/kg/min (administration volume: 1 mL/kg/h). Each dose was administered for more than 60 minutes and blood was collected from left auricular vein 60 minutes after the administration started. Blood was collected with a 1 mL syringe with a needle of […] treated with heparin (about 10 units/mL) beforehand. The collected blood was centrifuged at 4° C. 13,500 g for 5 minutes and the obtained supernatant (plasma) was stored at […] to be provided for the measurement of blood concentration of Compound A.\nIncrease or decrease ratio of mean blood pressure and heart rate at 5, 10, 15, 20, 30, 40, 50 and 60 minutes after the administration started were calculated based on the values of pre-administration of each subject. Maximum change of blood pressure and heart rate between before and after the administration of Test Compounds was evaluated."}, "[2]": {"assay": "In vitro hydrolysis test in rabbit plasma (release of Compound A, LC/MS/MS)", "type": "in vitro ADME", "conditions": "37° C.", "description": "The particles were retained inside articular cavity after intra-articular administration. The sustained period of active form inside articular cavity changes depending on hydrolysis period of a test compound. Therefore, the hydrolysis period of a test compound was evaluated and set as an indicator of sustained release of the active form.\nVarious test compounds were dissolved in dimethylsulfoxide, so that the concentration of the solution calculated in Compound A becomes 0.5 mg/mL. The solution (10 μL) was added to 0.5 mL of rabbit plasma and incubated at 37° C. in water bath. 50 μL of the solution was sampled 0, 1, 3, 8, 24, 30, 48 and 72 minutes after the incubation and the concentration of Compound A in sample was determined.\nAfter 50 μL of the solution was sampled in a polyethylene tube, 10 μL of deuterium-labeled Compound A as internal standard and 2 mL of acetonitrile were added, followed by stirring. After centrifugation, 100 μL of the supernatant was sampled in a polyethylene tube and 900 μL of acetonitrile was added thereto, followed by stirring. After filtration, the supernatant was measured by LC/MS/MS and the 50% hydrolysis time was calculated."}, "[3]": {"assay": "Blood concentration of Compound A during continuous intravenous administration to normal rabbit", "type": "in vivo", "conditions": "female, Japanese white, plasma, 60 minutes after administration started", "description": "as §1"}, "[4]": {"assay": "Particle forming: mean particle diameter (Dv) and particle distribution (PDI) of suspensions by laser diffraction", "type": "physicochemical", "conditions": "5% glucose solution containing 0.05% Tween 80", "description": "In the specification, the mean particle diameter means the mean particle diameter measured by a laser diffraction/scattering method. In the specification, the mean particle diameter is measured by a laser diffraction grain size distribution measuring apparatus (SALD-2100: manufactured by Shimadzu Corp.). In terms of mean particle diameter, various values such as volume mean diameter, surface mean diameter, median diameter and the like are used as an indicator of mean particle diameter, and in the specification, volume mean diameter (Dv) is used as a mean particle diameter.\nIn addition, a particle to be injected inside articular cavity is preferably a particle with a mean particle diameter with less variance and uniform size. The variance of mean particle diameter can be evaluated by measuring particle size distribution and the particle size distribution can be measured by a laser diffraction grain size distribution measuring apparatus as well as a mean particle diameter. […] In the description, PDI value and Dn was measured by a laser diffraction grain size distribution measuring apparatus (SALD-2100: manufactured by Shimadzu Corp.).\nTo distilled water, Compound 4-11 dissolved in ethanol was added slowly, 5% glucose solution and 5% glucose solution containing 0.05% Tween 80 with stirring. […] The quantity of each component is as follows, […]"}, "[5]": {"system": "knee cartilage defect model", "assay": "Evaluation of cartilage tissue score in knee cartilage defect model", "type": "in vivo", "conditions": "rabbit, intra-articular, bi-weekly, 6 times; vs vehicle, Steel test", "description": "Knee cartilage defect model was prepared by the following method. Female Japanese white domestic rabbit (2.5-3.5 kg) was anesthetized by the administration of sodium pentobarbital (30 mg/kg) through ear vein. The hair around knee articulations of both hind legs was removed and disinfected with iodine tincture. After the incision of the skin of an inert right hind leg, the boundary between patella ligament and articular capsule was incised in dorsal position. Patella was dislocated outward to expose trochlea femoris largely and medial condyle of femur was drilled with a dental drill to prepare small hole (diameter: 4 mm, depth: about 2 mm). The surgical incision was sutured and the surgical site was disinfected with iodine tincture. Femur of a left knee or both knees of pseudo-operation group was only exposed by the same operation without preparing small hole. To avoid infection disease, 100,000 units of benzylpenicilline procaine/125 mg titers of dihydrostreptomycin sulfate/I mg of procaine hydrochloride per rabbit was administered in gluteal muscle. A test compound (12-200 μg/knee, calculated in Compound A which is active form of test compounds) and its medium (5% glucose solution containing 0.05% Tween 80) were administered inside articular cavity of right knee of rabbit at bi-weekly intervals, 6 times for total, and from a week after operation. […]"}, "[6]": {"conditions": "rabbit, intravenous, 1000 ng/kg/min"}}, "data": [{"smiles": "CCCCCCCCCCCCCCCOc1cccc(C(=O)OCCOC(=O)CCC/C=C\\C[C@@H]2[C@@H](/C=C/C[C@H](O)C3(CC)CCC3)[C@H](O)C[C@H]2Cl)c1", "note": "[Compound 4-1, 2-{[(5Z)-7-{(1R,2R,3R,5R)-5-chloro-2-[(1E,4S)-4-(1-ethylcyclobutyl)-4-hydroxy-1-buten-1-yl]-3-hydroxycyclopentyl}-5-heptenoyl]oxy}ethyl 3-(pentadecyloxy)benzoate]", "values": [{"measurement": "effect on circulatory system", "setting": "[1]", "value": "hardly affects on circulatory system"}, {"measurement": "Time of 50% hydrolysis", "setting": "[2]", "value": 10.6, "unit": "days"}]}, {"smiles": "CCCCCCCCCCCCCCCOc1ccc(C(=O)OCCOC(=O)CCC/C=C\\C[C@@H]2[C@@H](/C=C/C[C@H](O)C3(CC)CCC3)[C@H](O)C[C@H]2Cl)cc1", "note": "[Compound 4-11, 2-{[(5Z)-7-{(1R,2R,3R,5R)-5-chloro-2-[(1E,4S)-4-(1-ethylcyclobutyl)-4-hydroxy-1-buten-1-yl]-3-hydroxycyclopentyl}-5-heptenoyl]oxy}ethyl 4-(pentadecyloxy)benzoate]", "values": [{"measurement": "effect on circulatory system", "setting": "[1]", "value": "hardly affects on circulatory system"}, {"measurement": "Time of 50% hydrolysis", "setting": "[2]", "value": 7.3, "unit": "days"}]}, {"smiles": "CCC(CCCCl)[C@@H](O)C/C=C/[C@@H]1[C@@H](C/C=C\\CCCC(=O)O)[C@H](Cl)C[C@H]1O", "note": "(stereo partly drawn) [Compound A, (5Z)-7-{(1R,2R,3R,5R)-5-chloro-2-[(1E,4S)-4-(1-ethylchlorobutyl)-4-hydroxy-1-butenyl]-3-hydroxycyclopentyl}-5-heptenoic acid]", "values": [{"measurement": "blood concentration that does not affect blood pressure", "setting": "[1]; rabbit", "value": "≤ 5.9", "unit": "ng/mL"}, {"measurement": "blood concentration that does not affect heart rate", "setting": "[1]; rabbit", "value": "≤ 2.0", "unit": "ng/mL"}, {"measurement": "increase of heart rate at maximum", "setting": "[1]; rabbit, intravenous, 100 ng/kg/min", "value": "about 5%"}, {"measurement": "increase of heart rate", "setting": "[1]; rabbit, intravenous, 300 ng/kg/min", "value": 15, "unit": "%"}, {"measurement": "decrease of blood pressure", "setting": "[1]; [6]", "value": 16, "unit": "mmHg"}, {"measurement": "increase of heart rate", "setting": "[1]; [6]", "value": 20, "unit": "%"}, {"measurement": "decrease of blood pressure at maximum", "setting": "[1]; rabbit, intravenous, 100 and 300 ng/kg/min", "value": "≤ 5", "unit": "mmHg"}, {"measurement": "concentration at 60 min", "setting": "[3]; continuous intravenous 100 ng/kg/min", "value": 2, "unit": "ng/mL"}, {"measurement": "concentration at 60 min", "setting": "[3]; continuous intravenous 300 ng/kg/min", "value": 5.9, "unit": "ng/mL"}, {"measurement": "concentration at 60 min", "setting": "[3]; continuous intravenous 1000 ng/kg/min", "value": 24.3, "unit": "ng/mL"}]}, {"smiles": "CCCCCCCCCCCCCCCCCC[N+](C)(C)CCOC(=O)CCC/C=C\\C[C@@H]1[C@@H](/C=C/C[C@H](O)C2(CC)CCC2)[C@H](O)C[C@H]1Cl.[Br-]", "note": "[Reference Example 3, N-(2-{[(5Z)-7-{(1R,2R,3R,5R)-5-chloro-2-[(1E,4S)-4-(1-ethylcyclobutyl)-4-hydroxy-1-buten-1-yl]-3-hydroxycyclopentyl}-5-heptenoyl]oxy}ethyl)-N,N-di methyl-octadecyl ammonium bromide]", "values": [{"measurement": "particle forming in dispersion medium", "setting": "[4]", "value": "did not form a particle"}]}, {"smiles": "CCCCCCCCCCCCCCCC#CCOC(=O)CCC/C=C\\C[C@@H]1[C@@H](/C=C/C[C@H](O)C2(CC)CCC2)[C@H](O)C[C@H]1Cl", "note": "[Compound 19, 2-octadecyn-1-yl(5Z)-7-{(1R,2R,3R,5R)-5-chloro-2-[(1E,4S)-4-(1-ethylcyclobutyl), 4-hydroxy-1-buten-1-yl]-3-hydroxycyclopentyl}-5-heptenoate]", "values": [{"measurement": "cartilage tissue score", "setting": "[5]", "value": "significantly improved"}, {"measurement": "effect on circulatory system", "setting": "[1]", "value": "hardly affects on circulatory system"}, {"measurement": "Time of 50% hydrolysis", "setting": "[2]", "value": 26.2, "unit": "days"}]}, {"smiles": "CCCCCCCCCCCCCCCCc1ccc(C(=O)OCCCOC(=O)CCC/C=C\\C[C@@H]2[C@@H](/C=C/C[C@H](O)C3(CC)CCC3)[C@H](O)C[C@H]2Cl)cc1", "note": "[Compound 6-4, 3-{[(5Z)-7-{(1R,2R,3R,5R)-5-chloro-2-[(1E,4S)-4-(1-ethylcyclobutyl)-4-hydroxy-1-buten-1-yl]-3-hydroxycyclopentyl}-5-heptenoyl]oxy}propyl 4-hexadecylbenzoate]", "values": [{"measurement": "Time of 50% hydrolysis", "setting": "[2]", "value": 7.8, "unit": "days"}]}]}
